Experimental data: US5422373A, “Anti-atherosclerotic aryl compounds” (Burroughs Wellcome Co., priority 1990, dated 1995)
pIC50: −log10 of the molar value.

How the values were obtained:
[1] = biological target: T1, ACAT (Rattus norvegicus, UniProt Q7TQM4); test: In vitro assay for the inhibition of ACAT activity; assay type: biochemical; conditions: hepatic microsomes of cholesterol/cholic acid fed male CD rats; [14C]oleoyl-CoA 25 μM
T1 construct: using hepatic microsomes as the source of both ACAT and cholesterol; from tissue; host or cells: liver microsomes of male CD rats fed a 0.8% cholesterol/0.2% cholic acid diet
T1 sequence (Q7TQM4 1-524): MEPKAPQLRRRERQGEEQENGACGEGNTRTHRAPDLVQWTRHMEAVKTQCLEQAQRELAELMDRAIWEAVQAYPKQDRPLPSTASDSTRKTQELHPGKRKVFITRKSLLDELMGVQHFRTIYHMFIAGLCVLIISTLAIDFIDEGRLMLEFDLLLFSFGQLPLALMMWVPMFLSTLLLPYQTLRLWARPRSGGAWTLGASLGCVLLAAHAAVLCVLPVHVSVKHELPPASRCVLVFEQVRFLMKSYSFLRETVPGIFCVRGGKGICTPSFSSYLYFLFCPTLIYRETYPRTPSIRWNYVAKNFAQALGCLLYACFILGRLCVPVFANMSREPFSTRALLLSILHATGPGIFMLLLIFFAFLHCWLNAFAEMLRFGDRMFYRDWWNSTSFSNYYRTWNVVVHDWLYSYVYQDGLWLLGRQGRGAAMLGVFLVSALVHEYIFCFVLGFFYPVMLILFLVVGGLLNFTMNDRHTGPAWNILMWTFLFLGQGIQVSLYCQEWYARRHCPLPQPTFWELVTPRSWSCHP
Description: (i) In vitro assay for the inhibition of ACAT activity
ACAT activity was determined as described by Ross et al by the incorporation of [^14 C]oleoyl-CoA into cholesterol [^14 C]oleate using hepatic microsomes as the source of both ACAT and cholesterol. Microsomes were prepared from the livers of male CD rats fed a 0.8% cholesterol/0.2% cholic acid diet 3.5 days before sacrifice. Various concentrations of a test compound were preincubated with a 0.5mg/ml microsomal suspension and after 15 minutes a 50 μg aliquot was removed and incubated with 25 μM of [^14 C]-enriched oleoyl-CoA for 4 minutes. The reaction was terminated by the addition of 1 ml of ethanol and 4ml of hexane. After shaking, the hexane layer was removed and evaporated to dryness. The hexane extract was then reconstituted in 150 μl of HPLC solvent and injected on to a B&J OD5 Reverse Phase C18 column using an isocratic mobile phase of acetonitrile: isopropanol:heptane (50:40:10) in 0.5% acetic acid at a flow rate of 1.0 ml/min. The product of the reaction, [14C]oleoyl cholesterol, was measured using a Flow One radiometric detector.
The ACAT IC50 value for each compound was determined from a plot of % inhibition from control vs inhibitor concentration.

[2] = tested on: cholesterol-cholic acid fed rats; test: Determination of hypolipidaemic activity in cholesterol-cholic acid fed rats; assay type: in vivo, rat; conditions: male Sprague-Dawley rats on 0.4% cholesterol, 0.2% cholic acid diet, serum on fourth day
Description: (ii) Determination of hypolipidaemic activity in cholesterol-cholic acid fed rats
Male Sprague-Dawley rats (CD, Charles River) each weighing 200-300 g were used. Hypercholesterolemia was induced in the rats by administration of a diet enriched to 0.4% cholesterol, 0.2% cholic acid. Prior to the administration of the diet, blood samples were collected under halothane anesthesia by cardiac puncture to determine baseline lipid levels. The blood was allowed to clot and serum was obtained for the analysis of total cholesterol, dextran-precipitable lipoproteins cholesterol (VLDL +LDL) and total triglycerides. The rats were divided into groups so that each group had similar average baseline serum lipid levels. Five days after the initial blood sampling, administration of each test compound and the cholesterol-cholic acid-enriched diet was begun. Compounds to be tested by gavage were administered b.i.d. in 0.5% methyl cellulose at 9:00 a.m. and 3:00 p.m. for three days and at 9:00 a.m. on the fourth day. Compounds administered as part of the diet were dissolved in ethanol and sprayed on to the diet. The ethanol was allowed to evaporate and the diet given to the rats for three days. On the fourth day, blood samples were collected and the final serum lipid levels determined. All blood samplings were taken after a four-hour fast. […]

pIC50 [1]: 7.57
Compound: CCCCCCCN(Cc1ccc(OCC(OC)OC)cc1)C(=O)Nc1ccc(OC)cc1OC [Synthetic Example 1]
reduction of LDL-cholesterol ([2]; dose of 25 mg/kg): 78% | reduction of LDL-cholesterol ([2]; dose of 50 mg/kg): 92%
